The values that follow come from paper PMC8949533, “Aurasperone A Inhibits SARS CoV-2 In Vitro: An Integrated In Vitro and In Silico Study” (Marine Drugs, 2022).

Holding throughout (type): cell-based
Data set [1] concerns SARS-CoV-2 virus (hCoV-19/Egypt/NRC-03/2020). Description: microbe, parasite or virus in culture.
A short description of another data set: MTT cytotoxicity assay. Conditions: African green monkey. As to the method: (§1) To assess the half maximal cytotoxic concentration (CC50), stock solutions of the test compounds were prepared in 10% DMSO in ddH2O and diluted further to the working solutions with DMEM. The cytotoxic activity of the extracts was tested in Vero E6 cells by using the 3-(4,5-dimethylthiazol-2-yl)-2,5-diphenyltetrazolium bromide (MTT) method with minor modifications. Briefly, the cells were seeded in 96-well plates (100 µL/well at a density of 3 × 10^5 cells/mL) and incubated for 24 h at 37 °C in 5%CO2. After 24 h, cells were treated with various concentrations of the tested compounds in triplicates. 24 h later, the supernatant was discarded, and cell monolayers were washed with sterile 1x phosphate buffer saline (PBS) 3 times and MTT solution (20 µL of 5 mg/mL stock solution) was add to each well and incubated at 37 °C for 4 h followed by medium aspiration. In each well, the formed formazan crystals were dissolved with 200 µL of acidified isopropanol (0.04 M HCl in absolute isopropanol = 0.073 mL HCL in 50 mL isopropanol). Absorbance of formazan solutions was measured at λ max 540 nm with 620 nm as a reference wavelength using a multi-well plate reader. The percentage of cytotoxicity compared to the untreated cells was determined with the following equation.
(In general: Formazan colour is commonly taken as a measure of viable cells.)

The next data set concerns Vero E6 cells. Description: MTT cytotoxicity assay. Conditions: Vero E6 cells, MTT, 24 h treatment. How it is done:
as §1

Setting [2] is: Severe acute respiratory syndrome coronavirus 2, Vero C1008, 72 h, read-out: IC50 against SARS-CoV-2.
[3] abbreviates: Vero E6 cells, MTT, 24 h treatment, read-out: CC50.
The mark [4] stands for this setting: Vero E6 cells, MTT, 24 h treatment, read-out: CC50 (Figure 2).
The mark [5] stands for this setting: Severe acute respiratory syndrome coronavirus 2, Vero C1008, 72 h, read-out: IC50 against SARS-CoV-2 (Figure 2).

Where two headings read alike, the source gives them in different places.

Broadly, the IC50 is the point on the concentration scale where inhibition reaches its midpoint. What is called CC50 is the concentration at which the toxic effect on the cells reaches its halfway point.

Consider `COc1cc(OC)c2c(O)c3c(=O)cc(C)oc3c(-c3c(OC)cc4cc5oc(C)cc(=O)c5c(O)c4c3OC)c2c1` [Aurasperone A (3), aurasperone A], for which the “selectivity index (SI = CC50/IC50)” value in data set [1] is reported as 2641.5. Moreover, the 50% inhibitory concentration (IC50) in data set [1] (setting [2]) was 12.2 µM. The CC50 at 24 h in “MTT cytotoxicity assay” (setting [3]) and in the data set “MTT cytotoxicity assay” (setting [4]) was 32400 µM in each case.

`COc1cc(OC)c2c(c1)cc(O)c1c(=O)cc(C)oc12` [Flavasperone (1), flavasperone]: the 50% inhibitory concentration (IC50) in data set [1] (setting [5]) is 204 µM. Further, in “MTT cytotoxicity assay” (setting [4]), the CC50 at 24 h is 189 µM.

Regarding `COc1cc(OC)c2c(O)c3c(=O)cc(C)oc3c(-c3c(OC)cc4cc(O)c5c(=O)cc(C)oc5c4c3OC)c2c1` [Fonsecinone A (4), fonsecinone A], the “selectivity index (SI = CC50/IC50)” value in data set [1] was 4.7. Also, the IC50 in data set [1] (setting [2]) was determined as 61.1 µM; in data set [1] (setting [5]), 61.6 µM. Also, the 50% cytotoxic concentration (CC50) at 24 h in the data set “MTT cytotoxicity assay” (setting [4]) amounted to 288 µM.

Take `COc1cc(OC)c2c(O)c3c(=O)cc(C)oc3c(-c3c(OC)cc(OC)c4c(O)c5c(=O)cc(C)oc5cc34)c2c1` [Rubasperone B (6), rubasperone B]: the IC50 in data set [1] (Severe acute respiratory syndrome coronavirus 2, Vero C1008, Vero E6 cells infected with hCoV-19/Egypt/NRC-03/2020, 72 h, read-out: IC50 against SARS-CoV-2 (Figure 2)) was found to be 105 µM. The CC50 at 24 h in “MTT cytotoxicity assay” worked out at 181 µM.

As for `CCC(CC)COC(=O)[C@H](C)N[P@](=O)(OC[C@H]1O[C@@](C#N)(c2ccc3c(N)ncnn23)[C@H](O)[C@@H]1O)Oc1ccccc1` [remdesivir, reference compound], the “selectivity index (SI = CC50/IC50)” value in data set [1] (CC50 in Vero E6 cells / IC50 against SARS-CoV-2) is given as 41.07. For the same compound, the IC50 in data set [1] (Severe acute respiratory syndrome coronavirus 2, Vero C1008, Vero E6 cells infected with hCoV-19/Egypt/NRC-03/2020, 72 h, CPE reduction by 50%, read-out: IC50 against SARS-CoV-2) turned out to be 10.1 µM. Besides, the cytotoxic concentration (CC50) in the data set on Vero E6 cells amounted to 415 µM. Moreover, the CC50 at 24 h in the data set “MTT cytotoxicity assay” (setting [3]) was 415 µM.
